Experimental data from paper PMC6766655, “AhR–ROR-γt complex is a therapeutic target for MAP4K3/GLK^highIL-17A^high subpopulation of systemic lupus erythematosus” (The FASEB Journal, 2019).
pIC50: −log10 of the molar value.

Key:
GCK (MAP4K2) = biological target: T1, GCK (MAP4K2) (Homo sapiens, UniProt Q12851); assay: In vitro kinase assay, myelin basic protein as substrate (ADP-Glo); assay type: biochemical; settings: recombinant kinase domain
T1 construct: Recombinant proteins of kinase domains of various MAP4Ks were used; purchased Promega
T1 sequence (Q12851 16-273 limits assumed): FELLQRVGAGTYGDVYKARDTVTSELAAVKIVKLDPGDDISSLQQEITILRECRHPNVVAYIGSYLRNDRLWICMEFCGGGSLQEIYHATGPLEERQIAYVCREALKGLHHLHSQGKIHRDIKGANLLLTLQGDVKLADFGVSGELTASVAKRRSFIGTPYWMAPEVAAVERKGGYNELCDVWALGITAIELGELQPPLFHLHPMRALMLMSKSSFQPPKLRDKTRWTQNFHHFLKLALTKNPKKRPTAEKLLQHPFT

GLK (MAP4K3) = biological target: T2, GLK (MAP4K3) (Homo sapiens, UniProt Q8IVH8); assay: as above; assay type: biochemical; settings: recombinant kinase domain
T2 construct: Recombinant proteins of kinase domains of various MAP4Ks were used; purchased Promega
T2 sequence (Q8IVH8 16-273 limits assumed): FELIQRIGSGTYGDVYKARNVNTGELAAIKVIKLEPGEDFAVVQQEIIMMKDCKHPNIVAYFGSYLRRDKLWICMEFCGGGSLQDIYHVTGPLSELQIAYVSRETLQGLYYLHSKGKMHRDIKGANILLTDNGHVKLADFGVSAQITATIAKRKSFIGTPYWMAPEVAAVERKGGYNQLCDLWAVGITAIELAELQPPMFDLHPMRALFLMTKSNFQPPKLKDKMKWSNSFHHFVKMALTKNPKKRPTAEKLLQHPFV
Experimental: GLK kinase activity was determined by measuring the rate of ADP production in the in vitro kinase reaction using ADP-Glo Kinase Assay Kit (Promega). For the kinase reaction, recombinant proteins of the GLK kinase domain (1 μg) were incubated with recombinant proteins of kinase-dead PKC-θ (K409W; 0.15 μg) plus ATP (0.1 mM) or myelin basic protein (MilliporeSigma) plus ATP (0.1 mM) in kinase buffer [40 mM Tris-HCl (pH 7.5), 20 mM MgCl2, 0.1 mg/ml bovine serum albumin, 10 mM DTT, and 0.1 mM Na3VO4] for 30 min at room temperature.

CIA mice = assay: Collagen-induced arthritis (CIA) in wild-type C57BL/6J mice; assay type: in vivo
Experimental: At 12 wk of age (d 0), male C57BL/6J mice were intradermally injected in the superficial layer of tail dermis with a total of 100 μl of an emulsion containing the chicken type II chicken collagen or Freund’s complete adjuvant emulsification (MD Biosciences, Oakdale, MN, USA) ([23]). The same injection was repeated intraperitoneally on d 21. Then, clinical signs of disease were assigned using the following clinical scores: 1, swollen digits; 2, erythema; 3, swollen paw or ankle; 4, loss of function. Mice were treated with verteporfin at a concentration of 0.4 μg/g body weight (0.556 nmol/g) by intravenous injection every 3 d starting from d 21 up to d 36.
Figure 4 Verteporfin (C1) suppresses IL-17 production and autoimmune responses in mice. A–C) Effect of C1 administration (0.4 μg/g body weight every 3 d for a period of 30 d) on serum IL-17A and autoantibodies in 20-wk-old Lck-GLK Tg mice. B) ELISA of serum IL-17A, IL-6, TNF-α, IFN-γ, and IL-17F in Lck-GLK Tg mice treated with C1 or PBS for 16 d. C) ELISA of serum autoantibodies in Lck-GLK Tg mice treated with C1 or PBS for 30 d. Means ± SEM are shown; n = 4/group. D) EAE induction in wild-type C57BL/6J mice treated with PBS or C1 (0.4 μg/g body weight every 3 d). Clinical scores are presented on a scale of 1–5. PBS group, n = 10; C1 group, n = 7. E) ELISA of IL-17A in the sera from MOG-immunized mice at day 16. F) Induction of CIA in wild-type C57BL/6J mice treated with C1 (0.4 μg/g body weight every 3 d) or PBS. Clinical scores are presented on a scale of 1–16; n = 4/group. G) ELISA of serum IL-17A in collagen-immunized mice at d 28. Data shown are representatives of 3 independent experiments. α-dsDNA, anti-dsDNA antibody; ANA, anti-nuclear antibody; N.S., not significant; RF, rheumatoid factor. Means ± SEM are shown. *P < 0.05, **P < 0.01, ***P < 0.001 (2-tailed Student’s t test).

Th17 differentiation = assay: In vitro Th17 differentiation of splenic T cells (flow cytometry of IL-17A-producing CD4+ T cells); assay type: cell-based, murine; settings: 1 or 5 μM during differentiation, 3 days
Experimental: Supplementary Figure 5. Verteporfin inhibits both Th17 differentiation and IL-17A production from in vitro differentiated Th17 cells. (A) Flow cytometry of IL-17A-producing CD4^+ T cells. Splenic T cells were co-treated with verteporfin (C1) (1 or 5 μM) during Th17 differentiation in vitro (for 3 days). (B) Flow cytometry of IL-17A-producing CD4^+ T cells. Murine in vitro differentiated Th17 cells were stimulated with PMA plus ionomycin and co-treated with verteporfin (C1) (1 or 5 μM) for 30 min. Data shown are representatives of two independent experiments.

EAE mice = assay: MOG-induced EAE in wild-type C57BL/6J mice; assay type: in vivo; settings: 0.4 μg/g body weight i.v. every 3 d

Substance: verteporfin
- pIC50 (GCK (MAP4K2)): 7.99
- pIC50 (GLK (MAP4K3)): 8.94
- serum levels of IL-6, TNF-α, IFN-γ, and IL-4, CIA (CIA mice; 0.4 μg/g body weight i.v. every 3 d): not significantly decreased
- serum IL-17A levels, CIA (CIA mice; 0.4 μg/g body weight i.v. every 3 d, d 28): significantly suppressed
- disease severity (clinical score), CIA (CIA mice; 0.4 μg/g body weight i.v. every 3 d from d 21): significantly suppressed
- Th17 differentiation (Th17 differentiation): inhibited
- Th17 differentiation (Th17 differentiation; listed as Verteporfin): inhibits
- disease severity (clinical score), EAE (EAE mice): significantly suppressed
- serum levels of IL-6, TNF-α, IFN-γ, and IL-4, EAE (EAE mice): not significantly decreased
- serum IL-17A levels, EAE (EAE mice; day 16): significantly suppressed
